Key:
[1] = target: T1, cold shock domain of LIN28A (residues 16–126) (Homo sapiens, UniProt Q9H9Z2); assay: Thermal shift assay (nano-differential scanning fluorimetry); format: binding; conditions: 30 µM protein, compound 100 µM to 0.78 µM
T1 construct: cold shock domain construct LIN28 A (residues 16– 126)
T1 sequence (Q9H9Z2 16-126): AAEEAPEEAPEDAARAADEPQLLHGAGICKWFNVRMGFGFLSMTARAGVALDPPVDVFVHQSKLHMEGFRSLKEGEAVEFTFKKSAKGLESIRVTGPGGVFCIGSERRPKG
Protocol: was detected after incubation at room temperature using a TECAN Spark plate reader. Half maximal […]
inhibitory concentrations (IC50) were determined using GraphPad Prism 7.
Compound screening. High throughput screening was performed in low volume 384 well plates […]
(Corning 4514) with 30 µM compound, 40 nM LIN28A, and 2 nM preE-let-7f-1-FAM in FP assay […]
buffer. Compounds were transferred with an ECHO 520 liquid handler and protein and RNA were […]
added with a multidrop dispenser. Protein and RNA were added stepwise with a 30 min incubation […]
period in between. FP was detected after a final incubation of 15 min with an Envision plate reader […]
and fluorescence was measured with a Paradigm plate reader. A reaction without LIN28 served as a […]
negative control and one without compound was used as a positive control. The software Quattro […]
fluorescence was detected with a ChemiDoc M P (Bio-Rad) and 2 minutes of exposure time. […]
126) with and without compound was monitored using a NanoTemper Prometheus NT.48 nano - […]
differential scanning fluorimetry (nanoDSF) instrument at temperatures between 20 °C and 90 °C and a temperature slope of 1 °C per minute with an excitation power of 50–60 %. […] The ratio of intrinsic tryptophan fluorescence at 350 nm and 330 nm was measured and the first derivative was determined to detect the inflection points using the software of the device. […]

[2] = target: T2, cold-shock domain of LIN28A (Homo sapiens, UniProt Q9H9Z2); assay: Fluorescence quenching binding assay
T2 construct: cold shock domain construct LIN28 A (residues 16– 126)
T2 sequence (Q9H9Z2 16-126): T1 sequence (Q9H9Z2 16-126)
Text: Figure S5. Fluorescence quenching assay measuring binding of PH-31 to the cold-shock domain of
(1 picture or pasted object on this page, not shown here)

JAR cells = assay: RT-qPCR of mature let-7 in JAR cells; format: cell-based, human; conditions: 24 h treatment
Protocol: differential scanning fluorimetry (nanoDSF) instrument at temperatures between 20 °C and 90 °C and a temperature slope of 1 °C per minute with an excitation power of 50–60 %. A total protein concentration of 30 µM and compound concentrations from 100 µM to 0.78 µM corresponding to […] to 0.039 % DMSO, respectively, were used. Compound and protein were incubated for 45 minutes at room temperature in buffer containing 30 mM NaH2PO4, 50 mM NaCl, 1 mM MgCl2, and 50 µM ZnCl2 at pH 8 and 10 µL sample was loaded to each nanoDSF standard capillary (NanoTemper). The ratio of intrinsic tryptophan fluorescence at 350 nm and 330 nm was measured and the first derivative was determined to detect the inflection points using the software of the device.
RT-qPCR. JAR cells (obtained from DSMZ, German Collection of Microorganisms and Cell Cultures, Braunschweig, Germany, DSMZ no. ACC462)1 were cultured in 24-well plates and treated with the compound (PH-31) for 24 h with a total DMSO concentration of 0.5 % in all wells. RNA was extracted using RNeasy Mini Kit (Qiagen) and 20 ng of total RNA was used for reverse transcription using the TaqMan microRNA Reverse Transcription Kit (Applied Biosystems) following the manufacturer's protocols. […]

Compound: O=C(C1=C(O)C(=O)N(c2ccc(O)c(C(=O)O)c2)C1c1ccc(-c2nccs2)cc1)c1ccc(Br)cc1 (stereo not shown) [C902/PH-31]
- thermal stability of the CSD of LIN28A [1]: concentration-dependent enhancement
- Kd [2]: 16.5 ± 2.8 µM
- level of mature let-7a (JAR cells): increased levels
- level of mature let-7g (JAR cells): increased levels

From article PMC8201479, “Trisubstituted Pyrrolinones as Small-Molecule Inhibitors Disrupting the Protein–RNA Interaction of LIN28 and Let-7” (ACS Medicinal Chemistry Letters, 2021)
